Reference: PubChem BioAssay (NCI)
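Where inhibition never reached the appropriate level, the endpoint shown equals the highest concentration tested. Otherwise, values were interpolated linearly from a five-concentration, 48-hour dose response in 96-well plates. GI50 marks 50% less growth. The concentration for full growth arrest is given as TGI.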

Legend:
Assay in all cases: growth of human tumour cells (NCI), 48 h
MDA-N = system: MDA-N
OVCAR-5 ovarian = system: OVCAR-5 ovarian
COLO 205 colon = system: COLO 205 colon
CAKI-1 renal = system: CAKI-1 renal
T-47D breast = system: T-47D breast
DU-145 prostate = system: DU-145 prostate
SF-268 CNS = system: SF-268 CNS
NCI-H460 lung = system: NCI-H460 lung
NCI-H226 lung = system: NCI-H226 lung
RXF 393 renal = system: RXF 393 renal

SMILES	TGI (MDA-N)	TGI (OVCAR-5 ovarian)	TGI (COLO 205 colon)	TGI (CAKI-1 renal)	TGI (T-47D breast)	TGI (DU-145 prostate)	TGI (SF-268 CNS)	TGI (NCI-H460 lung)	TGI (NCI-H226 lung)	TGI (RXF 393 renal)	GI50 (COLO 205 colon)	GI50 (CAKI-1 renal)	GI50 (T-47D breast)	GI50 (DU-145 prostate)	GI50 (NCI-H226 lung)	GI50 (RXF 393 renal)	GI50 (OVCAR-5 ovarian)	GI50 (SF-268 CNS)	GI50 (NCI-H460 lung)
CN(NC(=O)/C(=C/c1ccc(O)cc1)NC(=O)c1ccccc1)c1ccnc2cc(Cl)ccc12	32.2 µM	50.5 µM	36.2 µM	33.8 µM	45.6 µM	56.9 µM	36 µM	31.2 µM	32.7 µM	32 µM									
COc1cc(/C=C2\C[C@H]3[C@@H]4CC=C5C[C@@H](N6CCCC6)CC[C@]5(C)[C@H]4CC[C@]3(C)[C@H]2O)cc(OC)c1OC		24.4 µM	36.5 µM	29.8 µM	44.6 µM	32.1 µM	16.5 µM	13.6 µM	39.7 µM	20.2 µM									
Oc1ccc2c(c1)-c1c(c3cc(O)ccc3n1CCN1CCOCC1)CC2		> 100 µM	32.2 µM	70.5 µM	> 100 µM	> 100 µM	> 100 µM		41.4 µM	75.8 µM									
O=S(=O)(c1cc(Cl)ccc1Cl)N1CCN(S(=O)(=O)c2cc(Cl)ccc2Cl)CC1	> 100 µM	30 µM		> 100 µM	> 100 µM	29.6 µM	> 100 µM	> 100 µM	> 100 µM	> 100 µM									
COc1cc(Oc2nc3ccccc3nc2C(=O)O)cc(OC)c1OC		> 100 µM	> 100 µM	> 100 µM	> 100 µM	> 100 µM	> 100 µM	> 100 µM	> 100 µM	> 100 µM									
CC(=O)Nc1ccc(S(=O)(=O)Nc2nnc(S(N)(=O)=O)s2)cc1		> 100 µM	> 100 µM	> 100 µM	> 100 µM	> 100 µM	> 100 µM	> 100 µM	> 100 µM	> 100 µM									
CCNc1nc(N)c(C(=O)c2ccc(Cl)cc2)s1	> 100 µM	> 100 µM	47 µM		> 100 µM	> 100 µM	> 100 µM	> 100 µM	70.6 µM	53.5 µM									
Cc1c2c(n3c(nc4ccccc43)c1C#N)SCC2	> 10 µM	> 10 µM		> 10 µM	> 10 µM	> 10 µM	> 10 µM	> 10 µM	> 10 µM										
COc1cc2c(cc1OC)C1CN3C(=O)CCC3C(O)C1c1cc(OC)c(OC)cc1-2 (stereo not drawn)	> 100 µM	> 100 µM	> 100 µM	> 100 µM	> 100 µM	> 100 µM	> 100 µM	> 100 µM		> 100 µM									
CN(C)N=Nc1ccc([N+](=O)[O-])cc1C(N)=O		> 100 µM	> 100 µM	> 100 µM			> 100 µM	> 100 µM	> 100 µM	> 100 µM									
Cc1c(CNc2ccc(Cl)c(C(=O)NC(CC(=O)O)C(=O)O)c2)ccc2nc(N)nc(N)c12 (stereo not drawn)	> 1000 µM		> 1000 µM	> 1000 µM	> 1000 µM	> 1000 µM	> 1000 µM	323 µM	> 1000 µM	> 1000 µM	114 µM	0.617 µM	> 1000 µM	0.594 µM	> 1000 µM	> 1000 µM			
Cc1cc(S(=O)(=O)Nc2nc3ccsc3c(=O)n2N)c(S)cc1Cl	> 100 µM	> 100 µM	> 100 µM	> 100 µM		> 100 µM	> 100 µM	> 100 µM	88 µM										
CSC1=Nc2ccccc2-c2nc(-c3ccccc3)cc(-c3ccccc3)c2C1	> 100 µM	> 100 µM	> 100 µM	30 µM	76.4 µM	> 100 µM		> 100 µM	> 100 µM	45 µM									
CO/C(=N\N=C\c1ccc(Cl)cc1)c1ccncc1		> 100 µM	> 100 µM	> 100 µM			> 100 µM	> 100 µM	> 100 µM	> 100 µM									
CN(Cc1c2ccccc2cc2ccccc12)S(=O)(=O)c1ccc(-c2c3nc(c(-c4ccc(S(=O)(=O)N(C)Cc5c6ccccc6cc6ccccc56)cc4)c4ccc([nH]4)c(-c4ccc(S(=O)(=O)N(C)Cc5c6ccccc6cc6ccccc56)cc4)c4nc(c(-c5ccc(S(=O)(=O)N(C)Cc6c7ccccc7cc7ccccc67)cc5)c5ccc2[nH]5)C=C4)C=C3)cc1	> 100 µM	> 100 µM	> 100 µM	> 100 µM	> 100 µM	> 100 µM	> 100 µM	> 100 µM		> 100 µM									
Cc1cn(C2CC(O)C(CO)C2C)c(=O)[nH]c1=O (stereo not drawn)		> 100 µM	> 100 µM				> 100 µM	> 100 µM	> 100 µM	> 100 µM									
COc1ccc(/C=N\N2CC(=O)N3C4C=CC(CC4)N3C2=O)cc1 (stereo not drawn)	> 100 µM	> 100 µM	> 100 µM	> 100 µM	> 100 µM	> 100 µM	> 100 µM	> 100 µM	> 100 µM										
COc1cc(C2c3cc4c(cc3C(O)C3CCC(=O)N23)OCO4)cc(OC)c1OC (stereo not drawn)	38.2 µM	> 100 µM	> 100 µM	> 100 µM	> 100 µM	> 100 µM	> 100 µM	> 100 µM	79.3 µM										
Nc1ccc2c(c1)C1Oc3ccccc3CC1CO2 (stereo not drawn)	> 100 µM	> 100 µM	> 100 µM	> 100 µM	> 100 µM	> 100 µM	> 100 µM		> 100 µM										
CCNC(=S)N/N=C/c1cc(OC)ccc1O	> 100 µM	> 100 µM	> 100 µM		> 100 µM	> 100 µM	> 100 µM	> 100 µM	> 100 µM	> 100 µM									
Cn1ccnc1CCc1ccc(F)cc1F	> 100 µM	> 100 µM	> 100 µM		> 100 µM	> 100 µM	> 100 µM	> 100 µM	> 100 µM	> 100 µM									
CCN1CCN(C(=O)[C@]23CC[C@@H](C)[C@H](C)[C@@H]2C2=CC[C@@H]4[C@@]5(C)C/C(=C/c6cccnc6)C(=O)C(C)(C)[C@@H]5CC[C@@]4(C)[C@]2(C)CC3)CC1		2.93 µM	5.12 µM	11.8 µM	13.4 µM	4.21 µM	4.02 µM	3.45 µM	4.07 µM	2.83 µM	2.19 µM	2.12 µM	2.79 µM	2.08 µM	1.89 µM	1.45 µM	1.54 µM	1.77 µM	1.78 µM
